Experimental data reported in US20210128596A1, “COMPOSITIONS AND METHODS FOR TREATING SEPTIC CARDIOMYOPATHY” (UNIVERSITY OF PENNSYLVANIA, priority 2017, published 2021).
Entries after “also recorded” stand apart in the source; their conditions may differ.

Tests used:
[1] = test system: adenylyl cyclase V/VI; experiment: Adenylyl cyclase V/VI expression (western blot) in CLP mice; format: in vivo, mouse; details: SDG following CLP
Procedure: Mice were either sham treated (n=3) or subjected to cecal ligation puncture (CLP, n=6). SDG was administered to three mice following CLP.

[2] = test system: AC16 cells; experiment: cAMP levels in AC16 cells; format: cell-based, human
Procedure: AC16 cells were either left unstimulated or stimulated with either forskolin or isoproterenol for 12 hours and then treated with SDG, Liposaccharide (LPS) or both.
(§1) Cell culture—A human ventricular cardiomyocyte-derived cell line, designated AC-16, was used for some in vitro experiments. Cells were maintained in Dulbecco's modified Eagle's medium-nutrient mixture F-12 (DMEM-F-12; Invitrogen, Carlsbad, Calif.).

[3] = test system: protein kinase A (PKA); experiment: Protein kinase A (PKA) activity in AC16 cells; format: cell-based, human
Text: AC16 cells were either left untreated or treated with SDG, Liposaccharide (LPS), or both.
as §1

[4] = test system: AC16 cells; experiment: Mitochondrial number (Mitotracker Red) in LPS-treated AC16 cells; format: cell-based, human
Procedure: AC16 cells were either left untreated or treated for 12 hours with Liposaccharide (LPS) in the absence or presence of SDG, and mitochondria were stained.
To assess changes in the mitochondrial number, LPS stimulated AC16 cells and adult cardiomyocytes isolated 12 hours post-CLP were stained with 200 nM Mitotracker Red (M22425, Molecular Probes), and incubated for 30 minutes in the dark. Excess Mitotracker Red was removed with three washed of PBS solution. Mitotracker Red fluorescence was recorded at 581 (excitation) and 644 nm (emission).

[5] = test system: MCU and MICU1; experiment: MCU and MICU1 mRNA and protein levels after LPS; format: in vivo, mouse; details: LPS with SDG
Procedure: Mice were either sham treated or treated with LPS in with or without SDG (n=3 for each group) and the levels of MCU and MICU1 mRNAs were measured in quantitative PCR while the levels of protein were assessed through western blot.
(§2) RNA purification and gene expression analysis—Total RNA was purified from AC16 cells or hearts using the TRIzol reagent according to the instructions of the manufacturer (Invitrogen). DNase-treated RNA was used for cDNA synthesis using the ProtoScript II First Strand cDNA Synthesis Kit (New England Biolabs). Quantitative real-time PCR was performed with the Sybr Select Master Mix (Applied Biosystems). Incorporation of the SYBR green dye into the PCR products was monitored with the Applied Biosystems StepOnePlus Real-Time PCR System. Samples were normalized against mouse 36B4 or human rps13 RNA.
(§3) Protein purification and analysis—Isolated heart tissue or AC16 cells were homogenized in radioimmune precipitation assay buffer containing protease and phosphatase inhibitors (Pierce Protease and Phosphatase Inhibitor Mini Tablets, Thermo Scientific). 30-50 μg of total protein extract was applied to SDS-PAGE and transferred onto nitrocellulose membranes.

[6] = test system: ventricular tissue of septic mice; experiment: DHE staining of cardiac tissue (ROS); format: in vivo, mouse; details: ventricular tissue 12 hours post-CLP, LGM2605 6 h post-CLP
Procedure: DHE staining of cardiac tissue—Live myocardium was isolated from mice 12 hours after surgery and sectioned into 10 sections using a clean razor blade. Tissue was stained with 20 μM dihydroethidium (DHE) for 30 minutes at room temperature and imaged on a Zeiss Axio Observer Z1 fluorescent microscope at 490±10 nm excitation and 632±30 nm emission. Oxidized DHE fluoresces red and intercalates DNA. Individual nuclei were measured within each visual field using Zeiss Zen Blue software, and visual fields were averaged to measure mean fluorescence intensity for each mouse.

[7] = test system: IκBα; experiment: Phosphorylated and total IkBα immunoblot, ventricular tissue; format: in vivo, mouse; details: ventricular tissue 12 hours post-surgery
Procedure: as §3

[8] = test system: IL-1α, IL-1β, IL-6, TNFα; experiment: Cardiac mRNA expression of inflammatory cytokines; format: in vivo, mouse; details: 6 hours or 12 hours post-CLP
Procedure: as §2

[9] = test system: C57BL/6 mice; experiment: In vivo cardiac adrenergic sensitivity (hemodynamics, isoproterenol); set-up: species or system mouse; details: 12 h post-CLP, LGM2605 6 h post-CLP
Procedure: In vivo cardiac adrenergic sensitivity measurements—Hemodynamics measurements were performed, as published^21. Mice were anesthetized with 2% Tribromoethanol (Avertin). The right carotid artery was cannulated with a 1.4 French micro-manometer (Millar Instruments, Houston, Tex.) and was advanced into LV cavity, measuring LV pressure, LV end-diastolic pressure (LVEDP) and heart rate (HR). These parameters as well as maximal values of the instantaneous first derivative of LV pressure (+dP/dtmax, as a measure of cardiac contractility) and minimum values of the instantaneous first derivative of LV pressure (−dP/dtmin, as a measure of cardiac relaxation) were recorded at baseline and after administration, through the jugular vein, of increasing doses of the β-adrenergic receptor (βAR) agonist, isoproterenol (0.1 ng, 0.5 ng, 1 ng, 5 ng, 10 ng). Data was recorded and analyzed on a PowerLab System (AD Instruments).

[10] = test system: β adrenergic receptors; experiment: Radioligand binding assay for cardiac β-AR density; format: in vivo, mouse; details: hearts 12 h post-CLP, LGM2605 6 h post-CLP
Procedure: Radioligand binding assay—Plasma membranes from excised mouse hearts were prepared, and saturation radio-ligand binding was performed as described previously, using ^125I-CYP (iodocyanopindolol; PerkinElmer, Waltham, Mass.) for β-AR density measurement. Data were analyzed by nonlinear regression analysis using GraphPad Prism (GraphPad Software, La Jolla, Calif.).

`COc1cc(C[C@@H](CO[C@@H]2O[C@H](CO)[C@@H](O)[C@H](O)[C@H]2O)[C@H](CO[C@@H]2O[C@H](CO)[C@@H](O)[C@H](O)[C@H]2O)Cc2ccc(O)c(OC)c2)ccc1O` [LGM2605, secoisolariciresinol diglucoside] was tested, and the “adenylyl cyclase V/VI expression (AC/GAPDH ratio)” value [1] was “restores cyclase V/VI expression pre-CLP levels”, the cAMP levels ([2]; SDG in the presence of LPS) was “this increase was abolished in the presence of LPS” and the cAMP levels ([2]; in the presence of forskolin or isoproterenol) was “appears to be insignificant”. The cAMP levels ([2]; non-stimulated, 12 hours) was “increased cAMP levels”, the “protein kinase A (PKA) activity” value ([3]; SDG alone) was “increased protein kinase A (PKA) activity” and the “protein kinase A (PKA) activity” value ([3]; SDG in the presence of LPS) was “this stimulation was abolished in the presence of LPS”. The “protein kinase A (PKA) activity” value ([3]; SDG with isoproterenol) was “the increase was amplified by isoproterenol”, the “number of mitochondria (Mitotracker)” value ([4]; LPS 12 h with SDG/LGM2605) was “prevented by treatment with LGM2605” and the “number of mitochondria (Mitotracker)” value ([4]; LPS 12 h with SDG/LGM2605, listed as SDG) was “more than compensated for this LPS-dependent drop; also recorded: restored mitochondrial abundance in vitro and in vivo”. For the same compound, the “MCU and MICU1 mRNA levels” value [5] was “restored mRNA expression”, the “MCU protein level (western blot)” value [5] was “reverses the LPS-mediated decrease of MCU protein level” and the “MICU1 protein level (western blot)” value [5] was “increases MICU1 protein level”. The “ROS accumulation (DHE staining intensity)” value [6] was “alleviated significantly by LGM2605 administration”, the “ROS accumulation (DHE staining intensity)” value ([6]; listed as SDG) was “reduced ROS accumulation” and the “phosphorylation of IκBα” value [7] was “prevented by LGM2605”. For the same compound, the “cardiac mRNA levels of IL-1α, IL-1β, IL-6, and TNFα” value [8] was “did not reduce mRNA levels”, the responsiveness to isoproterenol [9] was “less robust in both septic groups regardless of LGM2605 treatment” and the “basal LVdP/dtmax and LVdP/dtmin” value ([9]; compared to sham surgery) was “lower basal myocardial LVdP/dtmax (FIG. 14B) and LVdP/dtmin (FIG. 14C) with or without LGM2605 administration”. For the same compound, the “cardiac β-AR density” value [10] was “not reversed by treatment with LGM2605”.
